The supplement of paper PMC10307832

Tests used:
Assay in all cases: relative viability (nuclei count vs DMSO), 5 days (fraction); higher = more cells survive
Afatinib + Navitoclax = compound: CN(C)C/C=C/C(=O)Nc1cc2c(Nc3ccc(F)c(Cl)c3)ncnc2cc1O[C@H]1CCOC1 [Afatinib] + CC1(C)CCC(c2ccc(Cl)cc2)=C(CN2CCN(c3ccc(C(=O)NS(=O)(=O)c4ccc(N[C@H](CCN5CCOCC5)CSc5ccccc5)c(S(=O)(=O)C(F)(F)F)c4)cc3)CC2)C1 [Navitoclax] (partner 0.5 µM)
Method in brief: (§1)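 The day after seeding in 1536-well plates, lung cancer cell lines were treated by pin tool with a single drug, or with a fixed anchor-drug dose together with five library-drug doses (not always all listed) in √10 steps. After 5 days, a combined fix-and-stain solution (final 0.05% Triton X-100, 1% formaldehyde, 1 ug/ml Hoechst) was added. Nuclei counted on 4× images gave relative viability as treated counts over vehicle counts, reported as the median of duplicate plates.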

Afatinib + Vorinostat = compound: CN(C)C/C=C/C(=O)Nc1cc2c(Nc3ccc(F)c(Cl)c3)ncnc2cc1O[C@H]1CCOC1 [Afatinib] + O=C(CCCCCCC(=O)Nc1ccccc1)NO [Vorinostat] (partner 1 µM)
Method in brief: as §1

Afatinib + Crizotinib = compound: CN(C)C/C=C/C(=O)Nc1cc2c(Nc3ccc(F)c(Cl)c3)ncnc2cc1O[C@H]1CCOC1 [Afatinib] + C[C@@H](Oc1cc(-c2cnn(C3CCNCC3)c2)cnc1N)c1c(Cl)ccc(F)c1Cl [Crizotinib] (partner 1 µM)
Method in brief: as §1

Afatinib + Tozasertib = compound: CN(C)C/C=C/C(=O)Nc1cc2c(Nc3ccc(F)c(Cl)c3)ncnc2cc1O[C@H]1CCOC1 [Afatinib] + Cc1cc(Nc2cc(N3CCN(C)CC3)nc(Sc3ccc(NC(=O)C4CC4)cc3)n2)n[nH]1 [Tozasertib] (partner 0.1 µM)
Method in brief: as §1

| Cell Line | relative viability (Afatinib + Navitoclax; first compound 0.005 µM) | relative viability (Afatinib + Navitoclax; first compound 0.01581 µM) | relative viability (Afatinib + Navitoclax; first compound 0.05 µM) | relative viability (Afatinib + Navitoclax; first compound 0.5 µM) | relative viability (Afatinib + Vorinostat; first compound 0.005 µM) | relative viability (Afatinib + Vorinostat; first compound 0.01581 µM) | relative viability (Afatinib + Vorinostat; first compound 0.05 µM) | relative viability (Afatinib + Vorinostat; first compound 0.1581 µM) | relative viability (Afatinib + Vorinostat; first compound 0.5 µM) | relative viability (Afatinib + Crizotinib; first compound 0.005 µM) | relative viability (Afatinib + Crizotinib; first compound 0.01581 µM) | relative viability (Afatinib + Crizotinib; first compound 0.05 µM) | relative viability (Afatinib + Crizotinib; first compound 0.5 µM) | relative viability (Afatinib + Tozasertib; first compound 0.005 µM) | relative viability (Afatinib + Tozasertib; first compound 0.01581 µM) | relative viability (Afatinib + Tozasertib; first compound 0.05 µM) | relative viability (Afatinib + Tozasertib; first compound 0.1581 µM) | relative viability (Afatinib + Tozasertib; first compound 0.5 µM) | relative viability (Afatinib + Navitoclax; first compound 0.1581 µM) | relative viability (Afatinib + Crizotinib; first compound 0.1581 µM) |
| --- | --- | --- | --- | --- | --- | --- | --- | --- | --- | --- | --- | --- | --- | --- | --- | --- | --- | --- | --- | --- |
| CAL-12T | 1.32 | 1.12 | 1.47 | 0.648 | 0.727 | 0.647 | 0.552 | 0.364 | 0.396 | 1.06 | 0.629 | 0.64 | 0.357 | 0.315 | 0.339 | 0.311 | 0.168 | 0.189 | – | – |
| EPLC-272H | 1.21 | 0.944 | 0.911 | 0.868 | 0.402 | 0.387 | 0.347 | 0.448 | 0.273 | 0.698 | 0.72 | 0.842 | 0.575 | 0.205 | 0.427 | 0.133 | 0.164 | 0.253 | 0.742 | 0.739 |
| NCI-H2405 | 0.857 | 0.879 | 0.912 | 1.07 | 1.2 | 0.848 | 0.976 | 0.953 | 0.938 | 0.753 | 0.86 | 0.835 | 0.819 | 0.779 | 0.741 | 0.741 | 0.646 | 0.824 | 0.715 | 0.811 |
| HCC-15 | 0.682 | 0.719 | 0.745 | 0.686 | 0.904 | 0.92 | 0.816 | 0.785 | 0.887 | 0.842 | 0.904 | 0.804 | 0.866 | 0.49 | 0.488 | 0.422 | 0.299 | 0.406 | 0.684 | 0.837 |
| PC-3 [JPC-3] | 0.398 | 0.345 | 0.341 | 0.32 | 0.531 | 0.339 | 0.287 | 0.326 | 0.328 | 0.51 | 0.453 | 0.447 | 0.355 | 0.443 | 0.416 | 0.428 | 0.291 | 0.37 | 0.324 | 0.4 |
| NCI-H1944 | 1.04 | 0.959 | 0.903 | 0.765 | 0.514 | 0.562 | 0.42 | 0.413 | 0.406 | 1.08 | 0.989 | 0.883 | 0.709 | 0.234 | 0.247 | 0.216 | 0.195 | 0.208 | 0.668 | 0.596 |
| HARA | 1.17 | 1.12 | 1.06 | 0.866 | 0.586 | 0.543 | – | 0.458 | 0.58 | 0.884 | 1.04 | 0.763 | 0.783 | 0.0895 | 0.0918 | 0.0646 | 0.0722 | 0.062 | 0.677 | 0.494 |
| NCI-H2126 | 0.836 | 0.854 | 0.829 | 0.411 | 0.732 | 0.683 | 0.617 | 0.43 | 0.481 | 1.09 | 0.989 | 1.02 | 0.79 | 0.852 | 0.813 | 0.668 | 0.571 | 0.632 | 0.441 | 0.884 |
| LXF-289 | 0.975 | 0.885 | 0.91 | 0.963 | 0.762 | 0.678 | 0.748 | 0.753 | 0.716 | 0.845 | 0.777 | 0.793 | 0.811 | 0.146 | 0.146 | 0.2 | 0.152 | 0.214 | 0.927 | 0.7 |
| NCI-H460 | 1.21 | 1.06 | 1.14 | 1.11 | 0.892 | 0.767 | 0.722 | 0.702 | 0.686 | 0.878 | 0.748 | 0.885 | 0.875 | 0.487 | 0.511 | 0.407 | 0.269 | 0.395 | 1.18 | 0.809 |
| NCI-H2170 | 0.481 | 0.454 | 0.284 | 0.2 | 0.618 | 0.697 | 0.271 | 0.201 | 0.2 | 1.07 | 0.822 | 0.534 | 0.286 | 0.651 | 0.574 | 0.355 | 0.221 | 0.203 | 0.187 | 0.25 |
| NCI-H2009 | 1.19 | 1.12 | 1.27 | 1.18 | 0.772 | 0.775 | 0.812 | 0.701 | 0.755 | 1.07 | 0.977 | 1.12 | 1.04 | 0.856 | 0.785 | 0.789 | 0.713 | 0.732 | 1.15 | 1.04 |
